Laboratory results as given in PubChem BioAssay AID504574 (Southern Research Specialized Biocontainment Screening …, 2011).

What follows are compounds tested on cytotoxicity counter-screen, cell viability, 2% serum (assay: viability loss in CXCR4-tropic fusion assay cells – cell-based, 2% serum, set 2, cytotoxicity control for HIV-1 antiviral lead project, dose response (AID 504574)).
Work on COc1ccc(CCn2c(O)cc3nn(-c4nc5ccccc5s4)c(=O)c-3c2C)cc1 yielded a CC50 of 23.4 µM. For Cc1c2c(=O)n(-c3nc4ccccc4s3)nc-2cc(O)n1Cc1cccnc1, the CC50 was 7.86 µM. In the case of Cc1c2c(=O)n(-c3nc4ccccc4s3)nc-2cc(O)n1C1CC1, the CC50 is reported as 3.82 µM. Compound Cc1c2c(=O)n(-c3nc4ccccc4s3)nc-2cc(O)n1Cc1ccccc1Cl has a CC50 of 6.06 µM. Work on Cc1c2c(=O)n(-c3nc4ccccc4s3)nc-2cc(O)n1Cc1ccncc1 yielded a CC50 of 9.26 µM. Cc1c2c(=O)n(-c3nc4ccccc4s3)nc-2cc(O)n1Cc1ccc(F)cc1 was tested, and the CC50 was 4.88 µM. Compound Cc1c2c(=O)n(-c3nc4ccccc4s3)nc-2cc(O)n1CCC(C)C has a CC50 of 18.6 µM. With Cc1c2c(=O)n(-c3nc4ccccc4s3)nc-2cc(O)n1Cc1cccs1 the CC50 was 5.51 µM. COc1ccc(Cn2c(O)cc3nn(-c4nc5ccccc5s4)c(=O)c-3c2C)cc1 was tested, and the CC50 was 5.52 µM. Work on Cc1c2c(=O)n(-c3nc4ccccc4s3)nc-2cc(O)n1CCc1ccc(O)cc1 yielded a CC50 of 3.34 µM. With Cc1c2c(=O)n(-c3nc4ccccc4s3)nc-2cc(O)n1Cc1ccccc1 the CC50 was 8.94 µM. Cc1c2c(=O)n(-c3nc4ccccc4s3)nc-2cc(O)n1CCc1cccs1 was tested, and the CC50 was 16 µM. COc1ccccc1Cn1c(O)cc2nn(-c3nc4ccccc4s3)c(=O)c-2c1C gave a CC50 of 15.1 µM.
